Measured values reported in patent US4413006A, “N-Aryl-N-phenoxy-alkyl-piperazine compounds useful in decreasing intracranial pressure” (Tanabe Seiyaku Co., Ltd., priority 1980, dated 1983).
Like-named read-outs stand apart in the source and are kept apart here.

Assays:
[1] = Maximum tolerance dose in mice (Experiment 3); design: species or system male mice; settings: mouse, in vivo, ip
Protocol: As a result, the maximum tolerance doses of 1-[3-(4-acetamido-2-methoxyphenoxy)-n-propyl]-4-(3-fluorophenyl)-piperazine, 1-[3-(4-acetamido-2-methoxyphenoxy)-n-propyl]-4-(2-fluorophenyl)-piperazine and 1-[3-(4-ethoxycarbonylamino-2-methoxyphenoxy)-n-propyl]-4-phenyl-piperazine methanesulfonate were more than 300 mg/kg.

[2] = system: intracranial pressure (cerebrospinal fluid pressure in the cisterna magna); assay: Effect of i.v. injection of test compounds on intracranial pressure in rats (Experiment 1); format: in vivo, Male SD-rats; settings: for Change in intracranial pressure (%), time after administration of test compound 40 minutes / Change in intracranial pressure (%), time after administration of test compound 60 minutes / Change in intracranial pressure (%), time after administration of test compound 120 minutes / Change in intracranial pressure (%), time after administration of test compound 180 minutes: i.v. infusion 0.2 ml/kg/minute for 20 minutes; for Change in intracranial pressure (%), time after administration of test compound 40 minutes: baseline 100, control 106.4; for Change in intracranial pressure (%), time after administration of test compound 60 minutes: baseline 100, control 107.5; for Change in intracranial pressure (%), time after administration of test compound 120 minutes: baseline 100, control 114.4; for Change in intracranial pressure (%), time after administration of test compound 180 minutes: baseline 100, control 110.7
Protocol: (Effect of i.v. injection of test compounds on intracranial pressure in rats) Male SD-rats weighing 500 to 800 g (each group consisting of 5 rats) were anesthetized with urethane. A solution of a test compound in an aqueous 5 w/v % mannitol solution was infused via the femoral vein at a rate of 0.2 ml/kg/minute for 20 minutes (when the test compound was used in the form of free base, said solution was prepared by dissolving it in an aqueous 5 w/v % mannitol solution with the aid of 0.5 N hydrochloric acid). Intracranial pressure (i.e., cerebrospinal fluid pressure in the cisterna magna) was continuously monitored via a cannula inserted in the cisterna magna. The cannula was connected to a transducer, and recording were made on graph paper. The effect of the test compound on the intracranial pressure was estimated in terms of the increase or decrease in intracranial pressure, which was calculated in accordance with the following formula: [formula]

[3] = system: apomorphine-induced cage climbing; assay: Anti-apomorphine activity in mice (Experiment 2 (3)); format: in vivo, male mice; settings: Mus musculus, ip, apomorphine hydrochloride 2.5 mg/kg s.c., dose decreasing climbing mice by 50%
Protocol: (§1) (Inhibitory effect of test compound on central nervous system in mice)
(§2) Inhibitory effect of test compound on central nervous system was examined by the following methods.
A solution or suspension of a test compound in water or an aqueous carboxymethylcellulose solution was administered intraperitoneally to male mice weighing 18 to 20 g (each group consisting of 5 mice). Thirty minutes after administration of the test compound, apomorphine hydrochloride (2.5 mg/kg) was administered subcutaneously to the mice, and the number of the mice which could climb a cage was examined. The 50% effective dose (ED50) of the test compound was estimated in terms of dose which is necessary to decrease the number of the medicated mice which could climb the cage by 50% of the number of a control group (i.e., non-medicated mice) which could climb the cage.

[4] = system: sodium hexobarbital-induced anesthesia; assay: Effect on sodium hexobarbital-induced anesthesia in mice (Experiment 2 (2)); format: in vivo, male mice; settings: Mus musculus, ip, sodium hexobarbital 100 mg/kg i.p., dose prolonging sleeping time to twice control
Protocol: as §1, §2
A solution or suspension of a test compound in water or an aqueous carboxymethylcellulose solution was administered intraperitoneally to male mice weighing 18 to 20 g (each group consisting of 5 mice). Thirty minutes after intraperitoneal administration of the test compound, sodium hexobarbital (100 mg/kg) was administered intraperitoneally to the mice, and the sleeping time between the loss and recovery of righting reflex was measured. The 50% effective dose (ED50) of the test compound was estimated in terms of dose which is necessary to prolong the sleeping time of the medicated mice twice as long as that of a control group (i.e., non-medicated mice).

[5] = system: spontaneous motor activity / central nervous system; assay: Inhibitory effect on spontaneous motor activity in mice (Experiment 2 (1)); format: in vivo, male mice; settings: Mus musculus, ip, 0.5 h, i.p., 30 minutes after administration, dose decreasing motor activity by 50%
Protocol: as §1, §2
A solution or suspension of a test compound in water or an aqueous carboxymethylcellulose solution was administered intraperitoneally to male mice weighing 18 to 20 g (each group consisting of 5 mice). Thirty minutes after administration of the test compound, the spontaneous motor activity of the mice was measured with an animex activity meter for 5 minutes. The 50% effective dose (ED50) of the test compound was estimated in terms of dose which is necessary to decrease the motor activity of the medicated mice by 50% of that of a control group (i.e., non-medicated mice).

Row | SMILES | Change in intracranial pressure (%), time after administration of test compound 40 minutes [2] [%] | Change in intracranial pressure (%), time after administration of test compound 60 minutes [2] [%] | Change in intracranial pressure (%), time after administration of test compound 120 minutes [2] [%] | Change in intracranial pressure (%), time after administration of test compound 180 minutes [2] [%] | also measured
1 | COc1cc(NC(C)=O)ccc1OCCCN1CCN(c2cccc(F)c2)CC1 [Example 5, 1-[3-(4-acetamido-2-methoxyphenoxy)-n-propyl]-4-(3-fluorophenyl)-piperazine] | – | – | – | – | MTD at 72 h [1]: > 300 mg/kg; decrease in the intracranial pressure ([2]; femoral vein infusion, dose 1 mg/kg, 40 minutes after administration): about 27%
2 | COc1cc(NC(C)=O)ccc1OCCCN1CCN(c2ccccc2F)CC1 [Example 7, 1-[3-(4-acetamido-2-methoxyphenoxy)-n-propyl]-4-(2-fluorophenyl)-piperazine] | – | – | – | – | MTD at 72 h [1]: > 300 mg/kg
3 | CCOC(=O)Nc1ccc(OCCCN2CCN(c3ccccc3)CC2)c(OC)c1.CS(=O)(=O)O [Example 21 methanesulfonate, 1-[3-(4-ethoxycarbonylamino-2-methoxyphenoxy)-n-propyl]-4-phenyl-piperazine methanesulfonate] | 79.7 | 79.3 | 79.2 | 82.2 | MTD at 72 h ([1]; mice, i.p., observed for 72 hours, read-out: maximum tolerance dose): > 300 mg/kg
4 | COc1cc(NC(C)=O)ccc1OCCCN1CCN(c2ccccc2F)CC1 [NO. 2 (Table 4)] | – | – | – | – | ED50 [3]: 2.8 mg/kg
5 | COc1cc(NC(C)=O)ccc1OCCCCN1CCN(c2ccccc2F)CC1 [NO. 3 (Table 1)] | 86.6 | 91.9 | 85.7 | 84.6 | –
6 | COc1cc(NC(C)=O)ccc1OCCCN1CCN(c2ccccc2F)CC1 [NO. 3 (Table 3)] | – | – | – | – | ED50 [4]: 1.3 mg/kg
7 | CCOC(=O)Nc1ccc(OCCCN2CCN(c3ccccc3)CC2)c(OC)c1 [NO. 3 (Table 4)] | – | – | – | – | ED50 [3]: 3 mg/kg
8 | CCNc1ccc(OCCCN2CCN(c3ccccc3)CC2)c(OC)c1.Cl [NO. 4 (Table 1), 1-[3-(4-ethylamino-2-methoxyphenoxy)-n-propyl]-4-phenyl-piperazine hydrochloride] | 83.9 | 81.1 | 86.8 | 91.3 | –
9 | COc1cc(NC(C)=O)ccc1OCCCN1CCN(c2ccccc2F)CC1 [NO. 4 (Table 2)] | – | – | – | – | ED50 [5]: 0.5 mg/kg
10 | COc1cc(N)ccc1OCCCN1CCN(c2ccccc2)CC1 [NO. 5 (Table 1)] | 79.1 | 77.0 | 75.0 | 75.6 | –
11 | COc1cc(N)ccc1OCCCN1CCN(c2ccccc2)CC1 [NO. 5 (Table 2), 1-[3-(4-amino-2-methoxyphenoxy)-n-propyl]-4-phenyl-piperazine] | – | – | – | – | ED50 [5]: 0.7 mg/kg
12 | COc1cc(NC(C)C(=O)O)ccc1OCCCN1CCN(c2ccccc2)CC1.Cl (stereo not drawn) [NO. 6 (Table 1), 1-{3-[4-(1-carboxyethylamino)-2-methoxyphenoxy]-n-propyl}-4-phenylpiperazine hydrochloride] | 81.5 | 86.2 | 96.2 | 99.0 | –
13 | COc1cc(NC=O)ccc1OCCCN1CCN(c2ccccc2)CC1 [NO. 7 (Table 1), 1-[3-(4-formylamino-2-methoxphenoxy)-n-propyl]-4-phenyl-piperazine] | 84.1 | 83.5 | 83.5 | 81.9 | –
14 | COc1cc(NC(=O)C(C)C)ccc1OCCCN1CCN(c2ccccc2)CC1 [NO. 8 (Table 1), 1-[3-(4-isobutyrylamino-2-methoxyphenoxy)-n-propyl]-4-phenyl-piperazine] | 83.3 | 85.4 | 85.1 | 87.1 | –
15 | COc1cc(NC(=O)C(C)(C)C)ccc1OCCCN1CCN(c2ccccc2)CC1 [NO. 9 (Table 1), 1-[3-(4-t-butylcarbonylamino-2-methoxyphenoxy)-n-propyl]-4-phenyl-piperazine] | 84.1 | 84.9 | 84.9 | 87.4 | –
16 | COc1cc(NC(=O)C2CC2)ccc1OCCCN1CCN(c2ccccc2)CC1 [NO. 10 (Table 1), 1-[3-(4-cyclopropylcarbonylamino-2-methoxyphenoxy)-n-propyl]-4-phenyl-piperazine] | 85.9 | 84.3 | 83.6 | 86.2 | –
17 | COc1cc(NC(=O)C2CCCCC2)ccc1OCCCN1CCN(c2ccccc2)CC1 [NO. 11 (Table 1), 1-[3-(4-cyclohexylcarbonylamino-2-methoxyphenoxy)-n-propyl]-4-phenyl-piperazine] | 91.1 | 94.3 | 78.7 | 78.8 | –
18 | COc1cc(NC(=O)C=C(C)C)ccc1OCCCN1CCN(c2ccccc2)CC1 [NO. 12 (Table 1), 1-{3-[4-((2-methyl-1-propenyl)carbonylamino)-2-methoxyphenoxy]-n-propyl}-4-phenylpiperazine] | 76.7 | 84.3 | 91.9 | 93.5 | –
19 | COc1cc(NC(=O)OC(C)(C)C)ccc1OCCCN1CCN(c2ccccc2)CC1 [NO. 14 (Table 1), 1-[3-(4-t-butoxycarbonylamino-2-methoxyphenoxy)-n-propyl]-4-phenyl-piperazine] | 78.9 | 77.7 | 80.3 | 81.6 | –
